# According to the Kinase Knowledgebase extract (Sharma et al. 2016):
# Target: EGFR (human) (UniProt P00533)
# Sequence (P00533 whole entry, looked up): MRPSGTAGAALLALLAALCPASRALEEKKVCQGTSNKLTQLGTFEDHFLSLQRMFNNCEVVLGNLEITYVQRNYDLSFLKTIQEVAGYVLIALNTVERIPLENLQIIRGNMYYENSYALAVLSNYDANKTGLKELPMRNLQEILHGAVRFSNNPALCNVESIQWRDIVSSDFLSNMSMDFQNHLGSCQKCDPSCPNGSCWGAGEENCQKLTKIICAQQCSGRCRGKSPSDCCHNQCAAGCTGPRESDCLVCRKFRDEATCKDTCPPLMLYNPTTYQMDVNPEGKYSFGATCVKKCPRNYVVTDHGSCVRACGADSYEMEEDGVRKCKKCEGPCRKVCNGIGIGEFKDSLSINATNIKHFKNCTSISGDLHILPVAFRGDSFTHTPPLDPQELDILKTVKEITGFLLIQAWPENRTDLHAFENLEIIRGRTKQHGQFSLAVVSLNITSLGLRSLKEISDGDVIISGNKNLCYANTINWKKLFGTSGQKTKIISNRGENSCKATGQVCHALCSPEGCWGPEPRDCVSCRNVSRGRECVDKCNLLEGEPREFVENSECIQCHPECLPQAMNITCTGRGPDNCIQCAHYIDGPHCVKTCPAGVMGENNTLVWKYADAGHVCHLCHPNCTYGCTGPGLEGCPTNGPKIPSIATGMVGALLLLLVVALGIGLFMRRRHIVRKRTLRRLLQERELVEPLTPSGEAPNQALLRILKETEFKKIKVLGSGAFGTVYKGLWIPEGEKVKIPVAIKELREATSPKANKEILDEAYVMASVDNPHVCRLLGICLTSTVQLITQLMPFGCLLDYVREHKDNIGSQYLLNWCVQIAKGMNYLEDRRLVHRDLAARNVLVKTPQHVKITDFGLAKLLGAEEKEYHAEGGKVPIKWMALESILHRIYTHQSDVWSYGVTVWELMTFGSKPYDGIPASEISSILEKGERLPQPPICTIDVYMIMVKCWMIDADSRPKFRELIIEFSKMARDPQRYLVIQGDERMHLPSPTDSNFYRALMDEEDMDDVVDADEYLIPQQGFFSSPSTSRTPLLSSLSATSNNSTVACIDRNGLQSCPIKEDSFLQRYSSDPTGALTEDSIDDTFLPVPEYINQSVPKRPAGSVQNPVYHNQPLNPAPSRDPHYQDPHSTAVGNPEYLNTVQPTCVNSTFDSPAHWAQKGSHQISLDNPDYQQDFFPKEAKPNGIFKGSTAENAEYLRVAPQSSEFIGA
row,SMILES,IC50 [nM]
1,CC#CC(=NOC[C@@H]1COCCN1)c1ccc2ncnc(Nc3ccc(OCc4cccc(F)c4)c(Cl)c3)c2c1,101
2,CC#CC(=NOCC(=O)NCCOS(C)(=O)=O)c1ccc2ncnc(Nc3ccc(COc4cccc(F)c4)c(Cl)c3)c2c1,47
3,CC#CC(=NOC[C@@H]1C[C@H](O)CN1)c1ccc2ncnc(Nc3ccc4c(cnn4Cc4cccc(F)c4)c3)c2c1,9.7
4,CC#CC(=NOC[C@H]1COCCN1)c1ccc2ncnc(Nc3ccc(OCc4cccc(F)c4)c(Cl)c3)c2c1,118
5,CC#CC(=NOC[C@@H]1COCCN1)c1ccc2ncnc(Nc3ccc(OCc4ccccn4)c(Cl)c3)c2c1,6.2
6,CC#CC(=NOCC(=O)NCCN(C)C)c1ccc2ncnc(Nc3ccc(COc4cccc(F)c4)c(Cl)c3)c2c1,20

# The remaining lines, values ahead:
row,IC50 [nM],SMILES
1,344,COC[C@@H]1CCCN1N=Cc1ccc2ncnc(Nc3ccc(COc4cccc(F)c4)c(Cl)c3)c2c1
2,426,CN(N=Cc1ccc2ncnc(Nc3ccc(COc4cccc(F)c4)c(Cl)c3)c2c1)c1ccccc1
3,275,C#CCN1CCC[C@H]1CON=C(C#CC)c1ccc2ncnc(Nc3ccc(OCc4cccc(F)c4)c(Cl)c3)c2c1
4,193,Fc1cccc(OCc2ccc(Nc3ncnc4ccc(C=NN5CCCCC5)cc34)cc2Cl)c1
5,122,CC#CC(=NOCC(=O)NCCO)c1ccc2ncnc(Nc3ccc(COc4cccc(F)c4)c(Cl)c3)c2c1
